Test results from patent publication US8273754B2, “Substituted 1H-pyrazolo[3,4-D]pyrimidine-6-amine compounds” (ArQule, Inc., priority 2008, dated 2012).
Where two headings read alike, the source gives them in different places.

Test system: cancer cells
Assay: MTS cell growth inhibition assay (72 hours)
Type: cell-based
Protocol: Cells were maintained at 37° C., 5% CO2 in DMEM media supplemented with 1% fetal bovine serum, penicillin/streptomycin and fungizone (Invitrogen). Cells were seeded into 96-well tissue culture plates at 3000 per well and cultured at 37° C. for 18 hours. Test compounds were dissolved and diluted to 300× in DMSO then further diluted 1:40 in DMEM before addition to cells (1:7.5 dilution). Cells were incubated with test compounds for 72 hours followed by incubation with tetrazolium compound (3-(4,5-dimethylthiazol-2-yl)-5-(3-carboxymethoxyphenyl)-2-(4-sulfophenyl)-2H-tetrazolium, inner salt; MTS) and the electron coupling reagent, phenazine methosulfate (PMS) for 4 hours. […] The ability of compounds to inhibit cell growth in this assay is correlated with the reduction of dehydrogenase enzyme activity found in metabolically active cells. The measurement of the absorbance of the formazan was assessed using an ENVISION™ (Perkin Elmer) microplate reader at 492 nm. The calculated IC50 value is the concentration of the test compound that causes a 50% decrease in the absorbance. […] A=>79% inhibition, B=>50 to 79% inhibition, C=<50% inhibition.

[1] = Homo sapiens, DLD-1, 72 h, DLD-1 cells, read-out: DLD-1 MTS 72 hr at 10 μM
[2] = Homo sapiens, KATO III, 72 h, KATO III cells, read-out: KATO III MTS 72 hr at 10 μM
[3] = Homo sapiens, MDA-MB-231, 72 h, MDA-MB-231 cells, read-out: MDA-MB-231 MTS 72 hr at 10 μM
[4] = Homo sapiens, NCI-H1299, 72 h, NCI-H1299 cells, read-out: NCI-H1299 MTS 72 hr at 10 μM
[5] = PaCa-2, 72 h, PACA-2 cells, read-out: PACA-2 MTS 72 hr at 10 μM

SMILES | inhibition at 10 µM [1] [%] | inhibition at 10 µM [2] [%] | inhibition at 10 µM [3] [%] | inhibition at 10 µM [4] [%] | inhibition at 10 µM [5] [%]
Cc1c(C(=O)N2CC(Nc3nc(N)nc4[nH]ncc34)Cc3ccccc32)oc2ccccc12 (stereo not shown) [Compound 91, (3-(6-amino-1H-pyrazolo[3,4-d]pyrimidin-4-ylamino)-3,4-dihydroquinolin-1(2H)-yl)(3-methylbenzofuran-2-yl)methanone] | 50 to 79 | > 79 | > 79 | < 50 | > 79
Nc1nc(NC2Cc3ccccc3N(C(=O)Nc3ccccc3Cl)C2)c2cn[nH]c2n1 (stereo not shown) [Compound 118, 3-(6-amino-1H-pyrazolo[3,4-d]pyrimidin-4-ylamino)-N-(2-chlorophenyl)-3,4-dihydroquinoline-1(2H)-carboxamide] | < 50 | < 50 | < 50 | < 50 | < 50
Nc1nc(NC2Cc3ccccc3N(S(=O)(=O)c3ccc(Br)c(F)c3)C2)c2cn[nH]c2n1 (stereo not shown) [Compound 62, N4-(1-(4-bromo-3-fluorophenylsulfonyl)-1,2,3,4-tetrahydroquinolin-3-yl)-1H-pyrazolo[3,4-d]pyrimidine-4,6-diamine] | < 50 | < 50 | < 50 | < 50 | < 50
Nc1nc(NC2Cc3ccccc3N(S(=O)(=O)c3ccc(NC(=O)Nc4ccccc4Cl)cc3)C2)c2cn[nH]c2n1 (stereo not shown) [Compound 190, 1-[4-({3-[(6-amino-1H-pyrazolo[3,4-d]pyrimidin-4-yl)amino]-3,4-dihydroquinolin-1(2H)-yl}sulfonyl)phenyl]-3-(2-chlorophenyl)urea] | < 50 | < 50 | < 50 | < 50 | < 50
Nc1nc(NC2Cc3ccccc3N(S(=O)(=O)c3ccc(NC(=O)Nc4ccc5c(c4)CCC5)cc3)C2)c2cn[nH]c2n1 (stereo not shown) [Compound 193, 1-[4-({3-[(6-amino-1H-pyrazolo[3,4-d]pyrimidin-4-yl)amino]-3,4-dihydroquinolin-1(2H)-yl}sulfonyl)phenyl]-3-(2,3-dihydro-1H-inden-5-yl)urea] | 50 to 79 | > 79 | 50 to 79 | > 79 | > 79
Nc1nc(NC2Cc3ccccc3N(C(=O)c3c(F)ccc(Cl)c3F)C2)c2cn[nH]c2n1 (stereo not shown) [Compound 104, (3-(6-amino-1H-pyrazolo[3,4-d]pyrimidin-4-ylamino)-3,4-dihydroquinolin-1(2H)-yl)(3-chloro-2,6-difluorophenyl)methanone] | < 50 | < 50 | < 50 | < 50 | < 50
Nc1nc(NC2CCN(S(=O)(=O)c3ccc(Cl)c(C(F)(F)F)c3)c3ccccc3C2)c2cn[nH]c2n1 (stereo not shown) [Compound 170, N4-(1-{[4-chloro-3-(trifluoromethyl)phenyl]sulfonyl}-2,3,4,5-tetrahydro-1H-1-benzazepin-4-yl)-1H-pyrazolo[3,4-d]pyrimidine-4,6-diamine] | < 50 | > 79 | > 79 | < 50 | 50 to 79
Nc1nc(NC2Cc3ccccc3N(S(=O)(=O)c3ccc(NC(=O)Nc4cc(F)cc(C(F)(F)F)c4)cc3)C2)c2cn[nH]c2n1 (stereo not shown) [Compound 197, 1-[4-({3-[(6-amino-1H-pyrazolo[3,4-d]pyrimidin-4-yl)amino]-3,4-dihydroquinolin-1(2H)-yl}sulfonyl)phenyl]-3-[3-fluoro-5-(trifluoromethyl)phenyl]urea] | > 79 | > 79 | > 79 | > 79 | > 79
Cc1ccc(S(=O)(=O)N2CCC(Nc3nc(N)nc4[nH]ncc34)Cc3ccccc32)cc1 (stereo not shown) [Compound 177, N4-{1-[(4-methylphenyl)sulfonyl]-2,3,4,5-tetrahydro-1H-1-benzazepin-4-yl}-1H-pyrazolo[3,4-d]pyrimidine-4,6-diamine] | < 50 | < 50 | < 50 | < 50 | < 50
Nc1nc(NC2Cc3ccccc3N(Cc3cn(-c4ccccc4)nc3-c3ccccc3)C2)c2cn[nH]c2n1 (stereo not shown) [Compound 151, N4-{1-[(1,3-diphenyl-1H-pyrazol-4-yl)methyl]-1,2,3,4-tetrahydroquinolin-3-yl}-1H-pyrazolo[3,4-d]pyrimidine-4,6-diamine] | > 79 | > 79 | < 50 | < 50 | > 79
COc1ccc(CCNC(=O)N2CC(Nc3nc(N)nc4[nH]ncc34)Cc3ccccc32)cc1OC (stereo not shown) [Compound 109, 3-(6-amino-1H-pyrazolo[3,4-d]pyrimidin-4-ylamino)-N-(3,4-dimethoxyphenethyl)-3,4-dihydroquinoline-1(2H)-carboxamide] | < 50 | < 50 | < 50 | < 50 | < 50
Nc1nc(NC2Cc3ccccc3N(C(=O)c3cc(Cl)cc(Cl)c3)C2)c2cn[nH]c2n1 (stereo not shown) [Compound 90, (3-(6-amino-1H-pyrazolo[3,4-d]pyrimidin-4-ylamino)-3,4-dihydroquinolin-1(2H)-yl)(3,5-dichlorophenyl)methanone] | > 79 | > 79 | > 79 | > 79 | > 79
Nc1nc(NC2Cc3ccccc3N(Cc3cccc(Oc4cc(Cl)cc(Cl)c4)c3)C2)c2cn[nH]c2n1 (stereo not shown) [Compound 154, N4-{1-[3-(3,5-dichlorophenoxy)benzyl]-1,2,3,4-tetrahydroquinolin-3-yl}-1H-pyrazolo[3,4-d]pyrimidine-4,6-diamine] | > 79 | > 79 | 50 to 79 | 50 to 79 | 50 to 79
COc1cccc(CC(=O)N2CC(Nc3nc(N)nc4[nH]ncc34)Cc3ccccc32)c1 (stereo not shown) [Compound 101, 1-(3-(6-amino-1H-pyrazolo[3,4-d]pyrimidin-4-ylamino)-3,4-dihydroquinolin-1(2H)-yl)-2-(3-methoxyphenyl)ethanone] | > 79 | < 50 | 50 to 79 | < 50 | < 50
Cc1cc([N+](=O)[O-])ccc1NC(=O)N1CC(Nc2nc(N)nc3[nH]ncc23)Cc2ccccc21 (stereo not shown) [Compound 113, 3-(6-amino-1H-pyrazolo[3,4-d]pyrimidin-4-ylamino)-N-(2-methyl-4-nitrophenyl)-3,4-dihydroquinoline-1(2H)-carboxamide] | > 79 | > 79 | > 79 | > 79 | > 79
Nc1nc(NC2Cc3ccccc3N(C(=O)C3CCC3)C2)c2cn[nH]c2n1 (stereo not shown) [Compound 103, (3-(6-amino-1H-pyrazolo[3,4-d]pyrimidin-4-ylamino)-3,4-dihydroquinolin-1(2H)-yl)(cyclobutyl)methanone] | > 79 | > 79 | > 79 | > 79 | > 79
COc1cc(CN2CC(Nc3nc(N)nc4[nH]ncc34)Cc3ccccc32)ccc1F (stereo not shown) [Compound 146, N4-[1-(4-fluoro-3-methoxybenzyl)-1,2,3,4-tetrahydroquinolin-3-yl]-1H-pyrazolo[3,4-d]pyrimidine-4,6-diamine] | > 79 | > 79 | > 79 | 50 to 79 | > 79
Nc1nc(NC2Cc3ccccc3N(S(=O)(=O)c3cccc(NC(=O)NCc4ccccc4)c3)C2)c2cn[nH]c2n1 (stereo not shown) [Compound 210, 1-[3-({3-[(6-amino-1H-pyrazolo[3,4-d]pyrimidin-4-yl)amino]-3,4-dihydroquinolin-1(2H)-yl}sulfonyl)phenyl]-3-benzylurea] | < 50 | < 50 | < 50 | < 50 | < 50
Nc1nc(NC2Cc3ccccc3N(S(=O)(=O)c3ccc(NC(=O)Nc4ccccc4)cc3)C2)c2cn[nH]c2n1 (stereo not shown) [Compound 225, 1-(4-(3-(6-amino-1H-pyrazolo[3,4-d]pyrimidin-4-ylamino)-3,4-dihydroquinolin-1(2H)-ylsulfonyl)phenyl)-3-phenylurea] | > 79 | > 79 | > 79 | > 79 | > 79
Cc1cccc(S(=O)(=O)N2CCC(Nc3nc(N)nc4[nH]ncc34)Cc3ccccc32)c1 (stereo not shown) [Compound 168, N4-{1-[(3-methylphenyl)sulfonyl]-2,3,4,5-tetrahydro-1H-1-benzazepin-4-yl}-1H-pyrazolo[3,4-d]pyrimidine-4,6-diamine] | < 50 | < 50 | < 50 | < 50 | < 50
